Assays:
VWD type 1 patients = test: In vivo therapy control (DDAVP); set-up: species or system human; conditions: three VWD type 1 patients; before, 30 min and 180 min after DDAVP
Excerpt: Therapy in VWD may be necessary to alleviate a bleeding episode or to prevent bleeding episode. Most individuals with type 1 VWD generally are managed effectively using DDAVP (Desmopressin acetate), which acts to release endogenous stored VWF. It is usual to conduct a trial of DDAVP and then monitor the response by subsequent blood sampling and testing. […] The method is a simple and rapid tool to discriminate responders from nonresponders to DDAVP. The advantage of this method is the close to immediate test time obtained. The result is available very soon after blood sampling. In contrast the VWF:CB result is generally obtained some days after blood sampling. The values for the amplitude ratio, the VWF:Ag and VWF-RCo are shown in figure 7 for three time points (before, 30 min after and 180 min after administration of DDAVP).

[1] = tested on: citrate-stabilized blood from a healthy patient; test: TEG (Rotem) of kaolin-activated citrated blood incubated with increasing amounts of ristocetin; assay type: cell-based, human; conditions: 10 min incubation, increasing final ristocetin concentration (up to 1.05 mg/ml)
Description: Citrate-stabilized blood from a healthy patient was transferred to a vial containing a standardized kaolin reagent and mixed by inversion The kaolin reagent was purchased from Haemoscope Corporation. The mixture was mixed well and divided into two 500 μL aliquots. Different amounts of ristocetin at a concentration of 15 mg mL^−1 was added to one part of the activated blood aliquots and both samples were incubated on a mixer for 10 min. 300 μL of both aliquots were filled to TEG assay cups and 20 μL of 0.2 M CaCl2 were added. The TEG tracings were allowed to run as least until the maximal amplitude was reached using a Rotem Analyser. […] Dependent of the final ristocetin concentration a decrease of the maximal amplitude and an increase in the clotting time were observed.

[2] = tested on: citrate-stabilized blood (platelets and VWF); test: TEG maximal amplitude with versus without ristocetin preincubation; assay type: cell-based, human; conditions: for maximal amplitude after ristocetin preincubation relative to maximal amplitude without preincubation: 25 μL of 15 mg/mL ristocetin per 500 μL, 10 min
Description: If TEG is the assay to determine the viscoelastic change the platelet activation in response to the activator of platelet aggregation for example ristocetin can by way of non limiting example be determined from the maximum amplitudes in the control without added platelet activator (MA) and the sample with the added platelet activator Ristocetin (MARistocetin): which can then be expressed as the ratio (MARistocetin/MA)*100. The percentage change is determined to assess individual subject's responses, thus providing an indication of relative response to a certain dose of ristocetin.
Analyser and the reagents were from Haemoscope Corporation. 1.3 mL of blood was collected in 3.18% trisodium citrate (1:9 anticoagulant to blood). One millilitre of citrate-stabilized blood was transferred to a vial containing a standardized kaolin reagent and mixed by inversion. The mixture was mixed well and divided into two 500 μL aliquots. 25 μL ristocetin at a concentration of 15 mg mL^−1 was added to one part of the activated blood aliquots and both samples were incubated on a mixer for 10 min. 360 μL of both aliquots were filled to TEG assay cups and 20 μL of 0.2 M CaCl2 were added. The TEG tracings were allowed to run as least until the maximal amplitude was reached.
According to the procedure in example 2 blood samples from healthy patients and patients with from VWD were tested. All VWD samples derived from patients diagnosed as having VWD using standard criteria. In addition to VWD plasma, a number of normal samples were also collected and used for comparative studies. The platelet activation in response to ristocetin is determined from the maximum amplitudes in the control (MA) and ristocetin activated trace (MARistocetin): MARicocetin/MA*100. The percentage change was calculated to assess individual subject's responses, thus providing an indication of relative response to a certain dose of ristocetin (0.71 mg/ml and 1,05 mg/ml final concentration). The Kaolin induced sample without adding ristocetin acted as the control measurement. […] Almost all platelets are deactivated and no more platelet contribution to the clot strength is detectable.

Compound | TEG ratio (maximal amplitude with ristocetin/without ristocetin)*100 (VWD type 1 patients) | VWF:Ag (VWD type 1 patients) | ristocetin cofactor activity (VWD type 1 patients) | clotting time [1] | maximal amplitude [1] | maximal amplitude after ristocetin preincubation relative to maximal amplitude without preincubation ([2]; blood from a VWD type 1 patient) | maximal amplitude after ristocetin preincubation relative to maximal amplitude without preincubation ([2]; blood from a VWD type 3 patient) [%] | maximal amplitude after ristocetin preincubation relative to maximal amplitude without preincubation ([2]; normal blood) | clot strength after ristocetin incubation ([2]; patients with VWD, 0.71 mg/ml and 1,05 mg/ml final concentration) | maximum amplitude after incubation with ristocetin ([2]; patients without VWD, 0.71 mg/ml and 1,05 mg/ml final concentration)
NC(=O)CC[C@@H]1NC(=O)[C@H](Cc2ccccc2)NC(=O)[C@H](Cc2ccc(O)cc2)NC(=O)CCSSC[C@@H](C(=O)N2CCC[C@H]2C(=O)N[C@H](CCCN=C(N)N)C(=O)NCC(N)=O)NC(=O)[C@H](CC(N)=O)NC1=O [DDAVP, Desmopressin acetate] | normalize | increase | increase |  |  |  |  |  |  | 
ristocetin |  |  |  | increase | decrease | about 75% | ~100 | about 20% | not or only slightly modified | significant decrease
